Data published in PMC8765435, “In Vitro Antimalarial Activity of Inhibitors of the Human GTPase Rac1” (Antimicrobial Agents and Chemotherapy, 2022).
Like-named read-outs stand apart in the source and are kept apart here.

Tests used:
Rac1 [1] = molecular target: T1, Rac1 (Homo sapiens, UniProt P63000); design: endogenous in cells; method as in PMID 24040362; settings: Rac1 activity in 22Rv1 human prostate cancer cells; cited from earlier work
3D7 mature gametocytes = test: Gametocyte viability luminescence assay, mature gametocytes; type: cell-based, Plasmodium falciparum
Experimental: (§1) Chloroquine (CQ)-sensitive (D10, wild-type 3D7, or transgenic 3D7elo1-pfs16-CBG99) and CQ-resistant (W2) strains of P. falciparum were cultured as described previously ([58]), with slight modifications, as detailed in the supplemental material.
(§2) Asexual parasite growth was determined spectrophotometrically (optical density at 650 nm [OD650]) by measuring the activity of parasite lactate dehydrogenase (pLDH), according to a modified version of the method of Makler et al. ([59]). Gametocyte viability was measured by a luminescence method described previously ([60]). Details for the two methods are reported in the supplemental material. From either the OD or ALU (arbitrary luminescence units), the percentages of viability were calculated according to the formula 100 × (treated sample signal − blank signal)/(untreated control signal − blank signal). The blank for the pLDH assay was uninfected RBCs at the same hematocrit as that of parasitized RBCs, and the blank for the luminescence assay was parasites treated with a high dose of methylene blue. […]
(§3) strain (wild type or transgenic 3D7elo1-pfs16-CBG99 strain) was cultured in similar conditions, except for 10% naturally clotted Human O+ serum instead of AlbuMaxII and human type O-positive instead of A-positive RBCs. […]
(§4) in a standard gas mixture consisting of 1% O2, 5% CO2, 94% N2. Immature (stage II-III) and mature (stage V) gametocytes were obtained as described1. Briefly, cultures were diluted to 0.5% parasitemia at 5% HCT, and the medium was changed daily until parasites were stressed by nutrient deprivation. N-acetylglucosamine (NAG) (Sigma-Aldrich) 50 mM was then added to clear residual asexual parasites: Stage II and III gametocytes were obtained 4 days after NAG addition to the culture, while stage IV and V gametocytes were used 11 to 13 days from NAG addition. Gametocyte stages were routinely checked on Giemsa-stained smears. […]
(§5) Drug treated gametocyte cultures were transferred to 96-well black microplates and D-luciferin (1 mM in citrate buffer 0.1 M, pH 5.5) was added at a 1:1 volume ratio. Luminescence measurements were performed after 10 min with 500 ms integration time. Gametocytes treated

3D7 immature gametocytes = test: Gametocyte viability luminescence assay, immature gametocytes; type: cell-based, Plasmodium falciparum; settings: 72 h, read-out: Mean IC50 ± SD, 3D7 immature gametocytes
Experimental: as §1, §2, §3, §4, §5

[2] = test system: HMEC-1 human microvascular endothelial cells; test: Cell cytotoxicity MTT assay; type: cell-based; settings: for IC50: read-out: Mean HMEC-1 IC50 ± SD; for SI (selectivity index): ratio IC50 against HMEC-1 cells / IC50 against D10 asexual parasites
Experimental: Cytotoxicity was evaluated on human microvascular endothelial cells (HMEC-1) as detailed in the supplemental material. […] Plates were then read on a microplate reader (Synergy 4; BioTek) at a wavelength of 550 nm (reference, 650 nm). […] All tests were performed in duplicate at least three times.
The selectivity index (SI) is the ratio between the cytotoxic IC50 value against HMEC-1 cells and the parasitic IC50 value against the D10 strain and indicates the compound selectivity for the parasite.
Cytotoxicity was evaluated on Human Microvascular Endothelial Cells (HMEC-1) maintained
and 2 mM L-glutamine. Cells were seeded in 96 well flat bottom tissue culture clusters (1.5x104
cells/well), let adhere overnight and treated with serial dilutions of test compounds . […]

[3] = test system: P. falciparum asexual parasites, chloroquine-resistant W2 strain; test: Drug susceptibility assay (pLDH), asexual parasites, W2 strain; type: cell-based, Plasmodium falciparum
Experimental: as §1, §2
(§6) The CQ-sensitive (D10) and the CQ-resistant (W2) strains were maintained at 5% hematocrit […]
(§7) supplemented with 1% AlbuMaxII (lipid-rich bovine serum albumin) (Invitrogen), 0.01% hypoxantine (Sigma), 20mM Hepes (EuroClone), 2 mM glutamine (EuroClone). […]
(§8) In vitro P. falciparum drug susceptibility assay […]
(§9) plate were transferred to a plate containing 100µl of Malstat reagent (0.11% [vol/vol] Triton- […]
(§10) dinucleotide [APAD] [Sigma-Aldrich], adjusted to pH 9 with 1 M HCl) and 25 µl of PES/NBT […]
(§11) pLDHassay. The plate was read at a wavelength of 650 nm using a microplate reader, Synergy4 […]
(§12) Uninfected RBC at the same HCT than parasites were used as blank. […]

[4] = test system: P. falciparum asexual parasites, chloroquine-sensitive D10 strain; test: Drug susceptibility assay (pLDH), asexual parasites, D10 strain; type: cell-based, Plasmodium falciparum; settings: for antimalarial activity (in words): asexual and sexual P. falciparum parasites
Experimental: as §1, §2, §6, §7, §8, §9, §10, §11, §12

[5] = test system: P. falciparum asexual parasites, chloroquine-sensitive D10 strain; design: method as in PMID 33328606; settings: reported previously, read-out: Mean IC50 ± SD, D10; cited from earlier work
[6] = test system: F3II mammary carcinoma cells; design: method as in PMID 24066799; settings: F3II mammary carcinoma cell proliferation; cited from earlier work
[7] = test system: P. falciparum asexual parasites, chloroquine-resistant W2 strain; design: method as in PMID 33328606; settings: reported previously, read-out: Mean IC50 ± SD, W2; cited from earlier work
Rac1 [8] = test system: Rac1; design: method as in PMID 17932039; settings: Rac1 activity in U87MG glioma cells; cited from earlier work
[9] = test system: REF-52 rat embryo fibroblasts; design: method as in PMID 19549603; settings: Actin stress fiber formation in REF-52 rat embryo fibroblasts; cited from earlier work
Rac1 [10] = test system: Rac1; design: method as in PMID 21433368; settings: Rac1 activity in EGF-stimulated NIH 3T3 fibroblasts; cited from earlier work
Rac1 [11] = test system: Rac1; design: method as in PMID 20008126; settings: Rac1 activity in Swiss 3T3 embryonic mouse fibroblasts; cited from earlier work
Rac1 [12] = test system: Rac1; design: method as in PMID 15128949; settings: Rac1 activity in PDGF-stimulated NIH 3T3 fibroblasts; cited from earlier work
Rac1 [13] = molecular target: T1, Rac1; design: endogenous in cells; settings: Rac1 activity in human smooth muscle cells; cited from earlier work
[14] = Plasmodium falciparum, 3D7, stage V gametocytes, 72 h, luminescence, read-out: Mean IC50 ± SD, 3D7 mature gametocytes
[15] = Plasmodium falciparum, 3D7, stage II-III gametocytes
[16] = Homo sapiens, HMEC-1, MTT, 72 h
[17] = Plasmodium falciparum, W2, 72 h, asexual parasites, CQ-resistant W2 strain, 72 h, pLDH, read-out: Mean IC50 ± SD, W2
[18] = asexual parasites, CQ-resistant W2 strain, 72 h, pLDH, read-out: Mean IC50 ± SD, W2
[19] = stage V gametocytes, 72 h, luminescence, read-out: Mean IC50 ± SD, 3D7 mature gametocytes
[20] = asexual parasites, CQ-sensitive D10 strain, 72 h, pLDH, read-out: Mean IC50 ± SD, D10

Cc1cc2cc(Nc3ccnc(Nc4ccc5[nH]c(C)cc5c4)n3)ccc2[nH]1 [Aza-1]
IC50 (Rac1 [1]): 5 to 20 µM | IC50 (3D7 mature gametocytes; [14]): 7.23 ± 2.12 µM | IC50 (3D7 immature gametocytes; [15]): 1.25 ± 0.48 µM | IC50 [2, 16]: 12.3 ± 6.11 µM | SI (selectivity index) [2]: 48.9 | IC50 [3, 17]: < 1 µM | IC50 [3, 18]: 0.76 ± 0.27 µM

CCN(CC)CCCC(C)Nc1ccnc2cc(Cl)ccc12 (stereo not drawn) [Chloroquine]
IC50 ([4]; Plasmodium falciparum, D10, 72 h, read-out: Mean IC50 ± SD, D10): 0.02 ± 0.003 µM | IC50 ([3]; Plasmodium falciparum, W2, 72 h, read-out: Mean IC50 ± SD, W2): 0.42 ± 0.08 µM

Cc1cc(C)cc(NC(N)=Nc2ccccc2C(F)(F)F)c1 [Compound 1A116]
IC50 [5]: 3.21 ± 1.17 µM | IC50 (3D7 mature gametocytes; [19]): 56.6 ± 21.3 µM | IC50 [6]: 4 µM | IC50 (3D7 immature gametocytes; stage II-III gametocytes): 78.1 ± 17.7 µM | IC50 ([2]; MTT, 72 h): 132 ± 37.3 µM | IC50 [7]: 6.89 ± 1.41 µM

CC1CCCN(S(=O)(=O)c2ccc(NC(=O)c3cc(-c4ccccc4O)n[nH]3)cc2)C1 (stereo not drawn) [Compound 3]
IC50 (3D7 mature gametocytes; [14]): 21.9 ± 2.71 µM | IC50 (3D7 immature gametocytes; [15]): 2.26 ± 0.22 µM | IC50 ([2]; Homo sapiens, HMEC-1, 72 h): 10.6 ± 1.19 µM | IC50 ([4]; Plasmodium falciparum, D10, 72 h, read-out: Mean IC50 ± SD, D10, asexual parasites, CQ-sensitive D10 strain, 72 h, pLDH): < 1 µM | IC50 ([4]; read-out: Mean IC50 ± SD, D10, asexual parasites, CQ-sensitive D10 strain, 72 h, pLDH): 0.66 ± 0.05 µM | IC50 ([3]; Plasmodium falciparum, W2, 72 h, read-out: Mean IC50 ± SD, W2, asexual parasites, CQ-resistant W2 strain, 72 h, pLDH): < 1 µM | IC50 ([3]; read-out: Mean IC50 ± SD, W2, asexual parasites, CQ-resistant W2 strain, 72 h, pLDH): 0.52 ± 0.02 µM | melting point: 254 to 258 °C

CC1CCCN(S(=O)(=O)c2cccc(NC(=O)c3cc(-c4ccccc4O)n[nH]3)c2)C1 (stereo not drawn) [Compound 3′]
IC50 (3D7 mature gametocytes; [14]): 26.6 ± 3.7 µM | IC50 (3D7 immature gametocytes; [15]): 2.13 ± 0.43 µM | IC50 [2, 16]: 16 ± 0.44 µM | SI (selectivity index) [2]: 5.8 | IC50 ([4]; Plasmodium falciparum, D10, 72 h, asexual parasites, CQ-sensitive D10 strain, 72 h, pLDH, read-out: Mean IC50 ± SD, D10): 2.76 ± 0.12 µM | IC50 [3, 17]: 1.24 ± 0.13 µM

O=c1cc(CN2CCOCC2)occ1OCCCCCSc1ccnc2cc(C(F)(F)F)ccc12 [EHT1864]
IC50 (Rac1 [8]): 10 to 50 µM | IC50 [5]: 3.88 ± 0.74 µM | IC50 (3D7 mature gametocytes; [19]): 32.6 ± 0.92 µM | IC50 (3D7 immature gametocytes; stage II-III gametocytes): > 50 µM | IC50 ([2]; MTT, 72 h): 48.5 ± 1.23 µM | IC50 [7]: 7.75 ± 1.82 µM

Cc1cc(/C=c2/sc3nc4ccccc4n3c2=O)c(C)n1-c1ccccc1 [ITX3]
IC50 [9]: 50 to 100 µM | antimalarial activity (in words) [4]: no effect | IC50 [4, 20]: > 50 µM | IC50 [3, 18]: > 50 µM

COc1ccc(C2CC(c3ccccc3)=NN2c2ccc(S(N)(=O)=O)cc2)cc1 (stereo not drawn) [ML141]
IC50 (Rac1 [10]): ~10 µM | IC50 [4, 20]: 10.7 ± 0.29 µM | IC50 [3, 18]: 17.3 ± 1.84 µM

O=C(C#Cc1ccccc1)c1cccc([N+](=O)[O-])c1 [MLS000532223]
IC50 [4, 20]: 6.89 ± 0.73 µM | IC50 (Rac1 [11]): ~10 µM | IC50 [3, 18]: 9.51 ± 1.66 µM

CN(C)c1ccc2nc3ccc(=[N+](C)C)cc-3sc2c1 [Methylene blue]
IC50 (3D7 mature gametocytes; [14]): 0.12 ± 0.03 µM | IC50 (3D7 immature gametocytes; [15]): 0.03 ± 0.01 µM

CCN(CC)CCCC(C)Nc1nc(C)cc(Nc2ccc3nc(C)cc(N)c3c2)n1 (stereo not drawn) [NSC23766]
IC50 (3D7 mature gametocytes; [19]): 30.8 ± 3.09 µM | IC50 (3D7 immature gametocytes; stage II-III gametocytes): 15.3 ± 3.7 µM | IC50 ([2]; MTT, 72 h): 154 ± 38.5 µM | IC50 (Rac1 [12]): […] | IC50 [4, 20]: 5.02 ± 1.47 µM | IC50 [3, 18]: 4.05 ± 0.5 µM

Cc1ccc(NC(=O)c2cccc(OCc3c(C)noc3C)c2)cc1S(N)(=O)=O [Rac1 inhibitor II]
IC50 (Rac1 [13]): 12.2 µM | IC50 [4, 20]: 11.9 ± 7.37 µM | IC50 [3, 18]: 37.5 ± 8.67 µM

Cc1cc(C)nc(NS(=O)(=O)c2ccc(NC(=S)NC(=O)COc3ccc(Br)cc3Cl)cc2)n1 [ZCL278]
IC50 (3D7 mature gametocytes; Table S2, CDC42 inhibitors, read-out: IC50, 3D7 mature gametocytes): 63.5 ± 27.3 µM | antimalarial activity (in words) [4]: not active | IC50 [4, 20]: > 50 µM | IC50 [3, 18]: > 50 µM

Cc1cc(C)nc(N=C(N)Nc2ccccc2C(F)(F)F)n1 [ZINC69391]
IC50 [6]: 61 µM | IC50 [4, 20]: 17.5 ± 4.64 µM | IC50 [3, 18]: 12.6 ± 5.25 µM
